SMILES strings stand for the structures.

Assay [1] has as its system Tel-Syk expressing BaF3 cells. In words: Tel-Syk BaF3 viability assay (growth factor-independent growth). Type of assay: cell-based, murine. The settings on record: Tel-Syk BaF3, absence of IL-3. The method, then: HEK293 T-REx™ (Life Technologies, Grand Island, NY) stably transfected with human TEL-Syk (cloned as described prior section DNA constructs) were plated on black poly-D-lysine coated 96-well plates (BD Biosciences, San Diego, CA) in culture media containing tetracycline-free fetal bovine serum (Clontech, MountainView, CA) for 16 hours in a tissue culture incubator. Tel-Syk expression was induced for 6 hours in fresh growth media containing 1 μg/ml tetracycline (Sigma Chemicals, St. Louis, MO). Plates were preincubated with CC-509 for 90 minutes, fixed immediately with 4% formaldehyde in 1X PBS for 20 min at room temperature, and washed/permeabilized 5-times with PBS containing 0.1% Triton X-100. Plates were blocked with Odyssey Blocking Buffer for 90 minutes at room temperature and incubated overnight at 4°C on a rotating platform with rabbit phospho-Syk (1:1000) and mouse V5 (1:2500) primary antibodies diluted in Odyssey Blocking Buffer. […] Viability of BaF/3 cells expressing Tel-Syk grown in the absence of murine IL-3 was measured using Cell-Titer Glo reagent (Promega, Madison, WI), as described by supplier.

Assay [2] deals with rat passive cutaneous anaphylaxis model. In words: rat passive cutaneous anaphylaxis (PCA) model. The settings on record: positive control cromolyn 100 mg/kg IV, p<0.001. The format is in vivo. The procedure:
On day 0, male CD-IGS rats (170 – 190g; Charles River Laboratories) were anesthetized with isofluorane, their dorsal region shaved and 50 μl Anti-DNP-IgE (Clone SPE-7, Sigma, St. Louis, MO) that had been diluted 1:1000 in saline was injected via the intradermal route at 3 individual spots along the right side of the back. Saline was injected via the intradermal route at 3 individual spots along the left side of the back as a sham control. Twenty-four hours later, 200 μl of BSA-DNP (Calbiochem, San Diego, CA), prepared (1 mg prepared in a 2% solution of Evans blue dye: Sigma Chemicals, St. Louis, MO) was injected via the IV route via the tail vein. Thirty minutes after the BSA-DNP challenge the experiment was terminated and skin samples from the middle of each injection site taken for Evans blue dye measurement at an OD measurement at 620nm on a plate reader following incubation (2h at 90°C) and homogenization in formamide (Sigma Chemicals, St. Louis, MO). Vehicle (20% Captisol® (Captisol), PO), the positive control (Cromolyn: Sigma Chemicals, St. Louis, MO 100mg/kg, 2mL/kg, IV) or CC0484509 (3 and 10mg/kg, PO) were dosed 1h prior to the IV challenge with BSA-DNP.
For the TEL-Syk assay, the intensity values for the 700 and 800 channel were exported as text files in ActivityBase (IDBS, Guildford, UK) to derive the ratios that reflect kinase activity. For LAD2 experiments, enzyme activity values were exported as text files into ActivityBase to calculate “percent release” according to the formula: 100* supernatant OD405/ (supernatant OD405 + (pellet OD405*pellet dilution factor)). For the basophil and B-cells assays, flow cytometry data was exported from the FACS Array and processed using FloJo software package (TreeStar, Inc., Ashland, Oregon). For the JAK2 HEL and Ramos NFAT β-lactamase assays, the fluorescence values obtained at 460 nm and 530 nm were exported into ActivityBase to calculate response ratios. For the neutrophil, macrophage, KDR, and JAK1/3 assays, raw values were exported into ActivityBase to calculate percent inhibition. All IC50 calculations were generated using XLfit (IDBS, Guildford, UK) algorithm 205 within Excel. For PCA, the OD from the saline injected site was subtracted from the OD from the anti-DNP IgE injected site. Evans blue dye extravasation was expressed as mean ± SEM and % inhibition for the test article groups was normalized to the cromolyn positive control. For the CIA model paw measurements (left and right ankle diameter) were taken for each individual animal and averaged. The mean data from each group was plotted and either the AUC(day 11–18) or % inhibition on day 18 was calculated. Data is expressed as mean ± SEM of each group with n = 6–12. […]

Details of assay [3]: method as in PMID 19096013. Particulars: chronic and refractory ITP; cited from earlier work.
Assay [4] deals with proinflammatory analytes in paw tissue. In words: inflammatory cytokines measured in the paw, rat CIA. The format is in vivo. Particulars: day 18; CC-509 all dose levels p<0.01; indomethacin p<0.05. The method, then:
Following the last administration of CC-509, paw samples were collected and processed for cytokine and chemokine analysis (Aushon Biosciences, Billerica, MA). Briefly paws were snap-frozen and pulverized in liquid nitrogen followed by addition of cell signal lysis buffer in the presence of protease and phosphatase inhibitors (Sigma Chemicals, St. Louis, MO). Samples were homogenized on high speed for 30 seconds, incubated on ice for 20 minutes then sonicated at high intensity for 1 minute. Samples were spun at high speed and supernatants were collected for cytokine analysis.

For assay [5], the system named is rat collagen-induced arthritis model. The assay is described as follows: rat collagen-induced arthritis (CIA) model, paw swelling. The format is in vivo. Particulars: Indomethacin 2 mg/kg oral, p<0.01. The method, then:
Female Lewis rats (150 – 170g; Charles River Laboratories) were house standard shoebox cages, fed Harlan-Tekald diet and water ad libitum and maintained on a 12h light/dark cycle. For induction of arthritis rats were anesthetized with isofluorane and their entire dorsal area shaved. Rats were injected (intradermal) with 100 μl of equal volumes of collagen (Chrondrex, Redmond, WA) and IFA (Sigma Chemicals, St. Louis, MO) emulsion in 10 sites across the dorsal region. At disease onset 11 days following immunization animals were randomized into groups based on their ankle measurements and test article administration was initiated. Rats were dosed orally with vehicle (20% Captisol®), Indomethacin (Sigma Chemicals, St. Louis, MO, 2mg/kg) or CC-509 (15, 25mg/kg QD or 15mg/kg BID) in a dose volume of 5ml/kg. […] On the last day of the study animals were split into 2 cohorts and bleed twice via tail bleed under isofluorane anesthesia and a third terminal bleed following CO2 asphyxiation to obtain a time course of plasma compound exposure at 30minutes, 1, 2, 4, 8 and 24h after the last dose of CC-509.
For the TEL-Syk assay, the intensity values for the 700 and 800 channel were exported as text files in ActivityBase (IDBS, Guildford, UK) to derive the ratios that reflect kinase activity. For LAD2 experiments, enzyme activity values were exported as text files into ActivityBase to calculate “percent release” according to the formula: 100* supernatant OD405/ (supernatant OD405 + (pellet OD405*pellet dilution factor)). For the basophil and B-cells assays, flow cytometry data was exported from the FACS Array and processed using FloJo software package (TreeStar, Inc., Ashland, Oregon). For the JAK2 HEL and Ramos NFAT β-lactamase assays, the fluorescence values obtained at 460 nm and 530 nm were exported into ActivityBase to calculate response ratios. For the neutrophil, macrophage, KDR, and JAK1/3 assays, raw values were exported into ActivityBase to calculate percent inhibition. All IC50 calculations were generated using XLfit (IDBS, Guildford, UK) algorithm 205 within Excel. For PCA, the OD from the saline injected site was subtracted from the OD from the anti-DNP IgE injected site. Evans blue dye extravasation was expressed as mean ± SEM and % inhibition for the test article groups was normalized to the cromolyn positive control. For the CIA model paw measurements (left and right ankle diameter) were taken for each individual animal and averaged. The mean data from each group was plotted and either the AUC(day 11–18) or % inhibition on day 18 was calculated. Data is expressed as mean ± SEM of each group with n = 6–12. Statistical analysis was performed with Prism Graphpad using one-way ANOVA followed by Dunnett’s comparison using the vehicle group as the control or for measurements over time a 2 way ANOVA followed by a Dunnett’s multiple comparison test. Statistical significance was deemed as * = p<0.05, **p<0.01, ***p<0.001 and p<0.0001.

By IC50 is commonly meant the concentration that gives 50% inhibition. High values mean lower potency, low ones higher potency. In assay [1], `NCCNc1ncc(C(N)=O)c(Nc2cccc(C(F)(F)F)c2)n1` [Syk II inhibitor, reference compound] had an IC50 of 2240 ± 290 nM.

In the case of `O=C(O)c1cc(=O)c2c(OCC(O)COc3cccc4oc(C(=O)O)cc(=O)c34)cccc2o1` [cromolyn, reference compound], the “inhibition of skin edema compared to vehicle control group” value in assay [2] was determined as 79%.

Turning to `COc1cc(Nc2ncc(F)c(Nc3ccc4c(n3)N(COP(=O)(O)O)C(=O)C(C)(C)O4)n2)cc(OC)c1OC` [fostamatinib], the “patients with durable platelet responses” value in assay [3] is listed as 8/16.

For the compound `COc1ccc2c(c1)c(CC(=O)O)c(C)n2C(=O)c1ccc(Cl)cc1` [indomethacin, reference compound], the “MIP-1α in the paw” value in assay [4] is “significantly inhibited”. In assay [5], the “inhibition of paw swelling” value came out at 82%.
